The results in this text go back to ChEMBL document CHEMBL1123077, “N-2,3-Butadienyl-1,4-butanediamine derivatives: potent irreversible inactivators of mammalian polyamine oxidase” (J Med Chem, 1985).

Series [1] in a line: Half life in pig liver at 12 uM. The format is ADME, organism-based, Sus scrofa. Particulars: pig liver (preparation not specified).
The nature of series [2]: Half life in pig liver at 50 uM. The format is ADME, organism-based, Sus scrofa. Particulars: pig liver (preparation not specified).

Broadly, the half-life is the time needed for the level to fall by half in the phase considered. A low value points to rapid decline. Regarding `C=CCNCCCCNC`, in series [1], the half-life at 12 µM is 12 min.
In series [2], `C=CCNCCCCN` displayed a half-life at 50 µM of 35 min.
